Assay results: publication PMC3574212 (Journal of medicinal chemistry, 2013)

Target: T1, EPAC2 (Mus musculus, UniProt Q9EQZ6)
T1 sequence (Q9EQZ6 1-1011): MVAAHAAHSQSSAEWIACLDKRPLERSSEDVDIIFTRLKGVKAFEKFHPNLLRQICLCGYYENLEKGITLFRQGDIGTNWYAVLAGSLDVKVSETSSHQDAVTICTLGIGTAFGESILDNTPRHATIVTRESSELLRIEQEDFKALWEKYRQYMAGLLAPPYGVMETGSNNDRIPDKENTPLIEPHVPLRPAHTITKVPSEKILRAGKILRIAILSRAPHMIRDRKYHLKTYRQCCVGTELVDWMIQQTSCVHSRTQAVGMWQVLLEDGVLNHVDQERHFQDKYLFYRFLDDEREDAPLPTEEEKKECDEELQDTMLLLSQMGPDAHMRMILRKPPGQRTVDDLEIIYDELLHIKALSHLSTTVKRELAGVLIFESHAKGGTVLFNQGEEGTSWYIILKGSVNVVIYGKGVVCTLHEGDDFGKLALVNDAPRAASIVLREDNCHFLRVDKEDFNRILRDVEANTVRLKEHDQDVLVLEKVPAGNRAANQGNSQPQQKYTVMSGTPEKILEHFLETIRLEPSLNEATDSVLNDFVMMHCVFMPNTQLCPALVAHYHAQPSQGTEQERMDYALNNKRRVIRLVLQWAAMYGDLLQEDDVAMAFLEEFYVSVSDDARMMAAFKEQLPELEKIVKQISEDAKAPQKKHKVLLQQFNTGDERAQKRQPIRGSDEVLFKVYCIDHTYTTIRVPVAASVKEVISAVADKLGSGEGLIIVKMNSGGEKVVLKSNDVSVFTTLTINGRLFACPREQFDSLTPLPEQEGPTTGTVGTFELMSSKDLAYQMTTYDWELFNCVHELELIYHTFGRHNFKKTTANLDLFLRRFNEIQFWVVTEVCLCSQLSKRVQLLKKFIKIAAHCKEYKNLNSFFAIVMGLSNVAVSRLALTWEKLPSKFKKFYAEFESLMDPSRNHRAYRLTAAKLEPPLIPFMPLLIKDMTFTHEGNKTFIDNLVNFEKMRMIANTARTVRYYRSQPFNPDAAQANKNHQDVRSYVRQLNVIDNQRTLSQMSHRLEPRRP
Test: 8-NBD-cAMP competition binding assay
Conditions: for Relative Potency (RA): RA = IC50, cAMP/ IC50, compound; for EPAC2 inhibitory activity (in words): 8-NBD-cAMP competition

Relative Potency (RA)	IC50	Structure (SMILES)	EPAC2 inhibitory activity (in words)
57.1	–	Cc1cc(C)c(S(=O)(=O)c2cc(C)c(C)cc2C)c(C)c1 [Compound 5a, 1,3,5-Trimethyl-2-(2,4,5-trimethylbenzenesulfonyl)benzene]	–
<0.13	> 300 µM	Cc1cc(C)c(S(=O)(=O)c2ccc(C3CCCCC3)cc2)c(C)c1 [Compound 5c, 2-(4-Cyclohexylbenzenesulfonyl)-1,3,5-trimethylbenzene]	–
10	–	Cc1cc(C)c(S(=O)(=O)c2ccc(I)cc2)c(C)c1 [Compound 8a, 2-(4-Iodobenzenesulfonyl)-1,3,5-trimethylbenzene]	–
21.1	–	COc1ccc(S(=O)(=O)c2c(C)cc(C)cc2C)cc1 [Compound 8b, 2-(4-Methoxybenzenesulfonyl)-1,3,5-trimethylbenzene]	–
<0.13	> 300 µM	Cc1cc(C)c(S(=O)(=O)c2ccc(-c3ccc(F)nc3)cc2)c(C)c1 [Compound 9, 2-Fluoro-5-[4-(2,4,6-trimethylbenzenesulfonyl)phenyl]pyridine]	–
3.0	–	Cc1cc(C)c(S(=O)(=O)c2ccc(O)cc2)c(C)c1 [Compound 10, 4-(2,4,6-Trimethylbenzenesulfonyl)phenol]	–
<0.13	> 300 µM	Cc1cc(C)c(S(=O)(=O)c2ccc(OC3CCCCC3)cc2)c(C)c1 [Compound 11a, 2-(4-Cyclohexyloxybenzenesulfonyl)-1,3,5-trimethylbenzene]	–
<0.13	> 300 µM	Cc1cc(C)c(S(=O)(=O)c2ccc(OC3CCN(C(=O)OC(C)(C)C)CC3)cc2)c(C)c1 [Compound 11b, 4-[4-(2,4,6-Trimethylbenzenesulfonyl)phenoxy]-piperidine-1-carboxylic acid tert-butyl ester]	–
<0.13	> 300 µM	Cc1cc(C)c(S(=O)(=O)c2ccc(OC3CCNCC3)cc2)c(C)c1 [Compound 11c, 4-[4-(2,4,6-Trimethylbenzenesulfonyl)phenoxy]piperidine]	–
<0.13	> 300 µM	Cc1cc(C)c(S(=O)(=O)c2ccc(OCCN)cc2)c(C)c1 [Compound 11d, 2-[4-(2,4,6-Trimethylbenzenesulfonyl)phenoxy]ethylamine]	–
10.5	–	Cc1ccc(Nc2c(C)cc(C)cc2C)cc1 [Compound 14a, p-Tolyl-(2,4,6-trimethylphenyl)amine]	–
44.4	–	Cc1cc(C)c(Nc2cc(Cl)cc(Cl)c2)c(C)c1 [Compound 14b, (3,5-Dichlorophenyl)-(2,4,6-trimethylphenyl)amine]	–
<0.13	> 300 µM	Cc1cc(C)c(Nc2nc(C)c(C)s2)c(C)c1 [Compound 17, (4,5-Dimethylthiazol-2-yl)-(2,4,6-trimethylphenyl)amine]	no activity
10	–	CCc1cccn1S(=O)(=O)c1ccc(C)cc1 [Compound 20b, 2-Ethyl-1-(toluene-4-sulfonyl)-1H-pyrrole]	–
5	–	CCc1cccn1S(=O)(=O)c1ccc(OC)cc1 [Compound 20c, 2-Ethyl-1-(4-methoxybenzenesulfonyl)-1H-pyrrole]	–
<0.13	> 300 µM	CCc1cccn1S(=O)(=O)c1ccc(C(F)(F)F)cc1 [Compound 20e, 2-Ethyl-1-(4-trifluoromethyl-benzenesulfonyl)-1H-pyrrole]	dramatic loss of EPAC inhibitory activity
7.5	–	CCc1cccn1S(=O)(=O)c1ccccc1C [Compound 20f, 2-Ethyl-1-(toluene-2-sulfonyl)-1H-pyrrole]	–
8.5	–	CCc1cccn1S(=O)(=O)c1cc(C)cc(C)c1 [Compound 20g, 1-(3,5-Dimethylbenzenesulfonyl)-2-ethyl-1H-pyrrole]	–

Structure (SMILES)	Relative Potency (RA)	IC50	EPAC2 inhibitory activity (in words)
CCCCCc1ccc(S(=O)(=O)c2c(C)cc(C)cc2C)cc1 [Compound 5b, 1,3,5-Trimethyl-2-(4-pentylbenzenesulfonyl)benzene]	<0.13	> 300 µM	–
